Data reported in patent US20260191968A1, “PROTAC DEGRADERS OF MLLT1 AND/OR MLLT3” (DARK BLUE THERAPEUTICS LTD, priority 2024, published 2026).

How the values were obtained:
MLLT1 [1] = molecular target: T1, MLLT1 (Homo sapiens, UniProt Q03111); assay: MLLT1 degradation assay in MV4-11 cells (JESS chemiluminescent detection), three concentrations, 24 h; assay type: cell-based; settings: with respect to DMSO control
T1 construct: host or cells: MV4-11
T1 sequence (Q03111 1-559): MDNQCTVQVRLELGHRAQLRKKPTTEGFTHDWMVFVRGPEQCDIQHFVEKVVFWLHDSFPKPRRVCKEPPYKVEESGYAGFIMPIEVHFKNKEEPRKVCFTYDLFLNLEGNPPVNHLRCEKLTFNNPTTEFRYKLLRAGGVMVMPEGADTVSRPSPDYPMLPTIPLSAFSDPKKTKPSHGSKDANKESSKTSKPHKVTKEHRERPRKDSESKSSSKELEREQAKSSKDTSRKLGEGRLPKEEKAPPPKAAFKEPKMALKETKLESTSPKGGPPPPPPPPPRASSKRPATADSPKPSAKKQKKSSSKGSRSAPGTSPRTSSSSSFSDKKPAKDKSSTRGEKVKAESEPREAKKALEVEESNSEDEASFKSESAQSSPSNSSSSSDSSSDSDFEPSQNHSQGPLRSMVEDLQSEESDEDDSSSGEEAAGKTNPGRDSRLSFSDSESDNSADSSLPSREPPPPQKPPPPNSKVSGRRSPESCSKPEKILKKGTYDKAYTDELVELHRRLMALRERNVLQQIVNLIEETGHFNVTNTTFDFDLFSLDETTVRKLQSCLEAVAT
Method in brief: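 MV4-11 cells treated 24 h at 37° C, 5% CO2 with 1000, 100 and 10 nM compound (0.1% DMSO final). MLLT1 quantified by automated capillary chemiluminescent immunodetection; band peak area expressed as % degradation relative to DMSO control.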

MLLT1 [2] = molecular target: T2, MLLT1 (Mus musculus, UniProt F6UGX7); assay: MLLT1 degradation assay in NIH/3T3 cells (JESS), dose response, 5 h; assay type: cell-based
T2 construct: host or cells: NIH/3T3
T2 sequence (F6UGX7 1-547): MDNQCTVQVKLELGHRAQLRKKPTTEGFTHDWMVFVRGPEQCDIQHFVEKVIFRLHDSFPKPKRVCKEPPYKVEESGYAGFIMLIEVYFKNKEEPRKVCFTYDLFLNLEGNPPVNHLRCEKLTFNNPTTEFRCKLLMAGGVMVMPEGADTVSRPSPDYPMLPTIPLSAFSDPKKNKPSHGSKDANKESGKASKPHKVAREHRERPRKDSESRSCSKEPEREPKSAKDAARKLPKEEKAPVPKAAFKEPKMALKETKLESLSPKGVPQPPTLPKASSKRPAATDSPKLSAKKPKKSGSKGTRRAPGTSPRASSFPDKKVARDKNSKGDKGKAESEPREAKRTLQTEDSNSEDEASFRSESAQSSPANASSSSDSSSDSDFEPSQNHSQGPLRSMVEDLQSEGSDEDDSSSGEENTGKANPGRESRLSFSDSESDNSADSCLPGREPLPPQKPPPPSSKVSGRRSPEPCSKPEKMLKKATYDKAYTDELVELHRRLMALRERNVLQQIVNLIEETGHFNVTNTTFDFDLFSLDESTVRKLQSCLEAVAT
Procedure: MLLT1 degradation efficacy of compounds was tested in an automated chemiluminescent detection system (JESS, Cat #004-650). NIH/3T3 (#CRL-1658, ATCC) were seeded at a density of 0.5 million cells/well in a cell culture treated 6-well cell culture plate in 2 mL of complete medium (DMEM+10% FBS+1X Penicillin-Streptomycin) and incubated at 37° C., 5% CO2. The next day, 10 mM DMSO stocks were prepared, and cells were treated with eight concentrations of test compound, starting from 100 nM, 5-fold dilution, at a final DMSO concentration of 0.1% and incubated for 5 h at 37° C., 5% CO2. Post incubation, cells were washed with HBSS and lysed in 70 μL of RIPA buffer supplemented with Protease inhibitors (sc-24948; Santa Cruz). Protein estimation was done using BCA protein assay kit (23228; Pierce). […] Post run, data was analysed using “Compass for SW” software for chemiluminescent detection. […]
MLLT3 degradation efficacy of compounds was tested in an automated chemiluminescent detection system (JESS, Cat #004-650). […] Post run, data was analysed using “Compass for SW” software for chemiluminescent detection. […]

CN1CCC[C@@H]1c1cc2cnc(NC(=O)c3ccc(CCCC#Cc4cccc5c4CN(C4CCC(=O)NC4=O)C5=O)cc3)cc2[nH]1 (stereo partly drawn) [Example 55, 4-(5-(2-(2,6-dioxopiperidin-3-yl)-1-oxoisoindolin-4-yl)pent-4-yn-1-yl)-N-(2-((R)-1-methylpyrrolidin-2-yl)-1H-pyrrolo[3,2-c]pyridin-6-yl)benzamide]
MLLT1% Degradation @ 0.01 μM (MLLT1 [1]; 0.01 μM): A (Category A: A ≥ 75% degradation)
MLLT1% Degradation @ 0.1 μM (MLLT1 [1]; 0.1 μM): A (Category A: A ≥ 75% degradation)
MLLT1% Degradation @ 1 μM (MLLT1 [1]; 1 μM): A (Category A: A ≥ 75% degradation)
Dmax (MLLT1 [2]; NIH3T3, read-out: MLLT1 Dmax in NIH/3T3 cells): 96%
DC50 (MLLT1 [2]; NIH/3T3 cells, 5 h): 1.2 nM
